Assays:
SCD-1 [1] = target: T1, SCD-1 (Homo sapiens, UniProt O00767); test: Whole cell based SCD-1 assay in human skin cell line A431 (tritiated stearoyl CoA, labelled water release); design: includes cells which express the SCD-1 gene product endogenously; endogenous in cells; host or cells: A431 (ATCC CRL 1555), not induced; conditions: for IC35: EC35; for Fold Skin:liver: ratio of EC35 skin cells (A431) to EC35 liver cells (HepG2)
T1 sequence (O00767 1-359): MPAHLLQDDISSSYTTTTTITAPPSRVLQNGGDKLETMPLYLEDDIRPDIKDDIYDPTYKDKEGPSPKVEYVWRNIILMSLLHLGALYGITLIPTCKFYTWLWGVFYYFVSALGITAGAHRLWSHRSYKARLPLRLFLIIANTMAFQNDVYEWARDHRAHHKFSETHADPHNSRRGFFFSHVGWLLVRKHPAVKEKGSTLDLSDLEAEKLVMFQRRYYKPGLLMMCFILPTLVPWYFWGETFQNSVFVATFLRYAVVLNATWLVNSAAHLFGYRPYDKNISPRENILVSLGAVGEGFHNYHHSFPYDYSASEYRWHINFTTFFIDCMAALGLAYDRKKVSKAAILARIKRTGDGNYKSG
Experimental: (§1) An assay was developed using whole cells to screen for agents that modulate SCD-1 activity. Three cell lines namely human liver cell line (hepatocellular carcinoma HepG2 ATCC HB 8065), human skin cell line (epidermal carcinoma A431 ATCC CRL 1555) and human corneal epithelial progenitor (HCEP) cells (CELLNTEC advanced cell systems) were used. HepG2 cells were seeded in a 24 well plate in complete MEM medium (Hyclone). A431 cells were seeded in a 12 well plate in complete DMEM medium (Sigma). HCEP cells were seeded in a 96 well plate in defined corneal epithelial medium CnT 20 (CELLNTEC advanced cell systems). HepG2 cells were induced with LXR agonist T0901317 (Cayman chemicals) in medium containing high glucose and fatty acid free BSA for 3 days with media change every day (Wang et al, (2004) Journal of Lipid Research, 45, 972-980). A431 cells were not induced. (3). The cells were preincubated in plain medium with the known SCD-1 modulators namely CLA (conjugated linoleic acid) (Sigma) and TSA (9 thiastearic acid) (Cayman chemicals) for 15-30 minutes at 37 deg C. and further challenged with 0.25 to 7.5 μCi tritiated Stearoyl CoA (American Radiolabelled chemicals). The cells were incubated for last 6 hours in 5% CO2 incubator at 37 deg C. or in specific embodiments for 4 hours to 30 hours. At the end of the incubation, the incubation medium was collected into tubes. Dowex AG 1-X8 resin (Biorad laboratories) pre-equilibrated with distilled ethanol:water was added to the tubes to separate the unconsumed substrate from the labelled water. The tubes were then vortexed for 5 minutes and centrifuged at 14000 rpm for 20 minutes at room temperature. The supernatant from the tubes was mixed with the scintillation fluid and radioactivity counted in the Packard topcount scintillation counter (Perkin Elmer). Counts obtained were normalised per million cells. Inhibition of enzyme activity was calculated as the percent of maximum reaction control that contained no test compound.
(§2) The whole cell based assay was adapted to screen for agents that differentially modulate SCD-1 activity present in different tissues. Three cell lines namely human liver cell line (hepatocellular carcinoma HepG2), human skin cell line (epidermal carcinoma A431) and human corneal epithelial progenitor (HCEP) cells were used. HepG2 cells were seeded in a 24 well plate in complete MEM medium. A431 cells were seeded in a 12 well plate in complete DMEM medium. HCEP cells were seeded in a 96 well plate in defined corneal epithelial medium CnT 20. HepG2 cells were induced with LXR agonist T0901317 in medium containing 4.5 gm/litre glucose and 0.1% fatty acid free BSA for 3 days with media change every day (Wang et al, (2004) Journal of Lipid Research, 45, 972-980). A431 cells and HCEP cells were not induced. (3). The cells were preincubated in plain medium 0.1 nM to 10 μM concentrations potential SCD-1 modulator compounds for 15-30 minutes at 37 deg C. and further challenged with 0.25 to 7.5 μCi tritiated Stearoyl CoA. The cells were incubated for last 6 hours in 5% CO2 incubator at 37 deg C. or in specific embodiments for 4 hours to 30 hours. At the end of the incubation, the incubation medium was collected into tubes. Dowex AG 1-X8 resin pre-equilibrated with distilled ethanol:water was added to the tubes to separate the unconsumed substrate from the labelled water. The tubes were then vortexed for 5 minutes and centrifuged at 14000 rpm for 20 minutes at room temperature. The supernatant from the tubes was mixed with the scintillation fluid and radioactivity counted in the Packard topcount scintillation counter. Counts obtained were normalised per million cells. Inhibition of enzyme activity was calculated as the percent of maximum reaction control that contained no test compound. For active compounds, EC35 was calculated from dose response curve by non linear regression analysis using GraphPadPRISM software. The ratio of EC35 for skin cells to EC35 for liver cells was calculated. […]

SCD-1 [2] = target: T1, SCD-1; test: Whole cell based SCD-1 assay in human liver cell line HepG2 (tritiated stearoyl CoA, labelled water release); design: includes cells which express the SCD-1 gene product endogenously; endogenous in cells; host or cells: A431 (ATCC CRL 1555), not induced; conditions: EC35
Experimental: as §1, §2

SCD-1 [3] = target: T1, SCD-1; test: as above; design: includes cells which express the SCD-1 gene product endogenously; endogenous in cells; host or cells: A431 (ATCC CRL 1555), not induced; conditions: for Fold Liver:skin: ratio of EC35 liver cells (HepG2) to EC35 skin cells (A431)
SCD-1 [4] = target: T1, SCD-1; test: Whole cell based SCD-1 assay in human skin cell line A431 (tritiated stearoyl CoA, labelled water release); design: includes cells which express the SCD-1 gene product endogenously; endogenous in cells; host or cells: A431 (ATCC CRL 1555), not induced
SCD-1 [5] = target: T1, SCD-1; test: Whole cell based SCD-1 assay in human corneal epithelial progenitor (HCEP) cells; design: includes cells which express the SCD-1 gene product endogenously; endogenous in cells; conditions: for IC35: HCEP human corneal epithelial cells, EC35, read-out: hCornea EC35; for Fold Liver:Cornea: ratio of EC35 liver cells (HepG2) to EC35 corneal cells (HCEP)
Experimental: as §1
The whole cell based assay was adapted to screen for agents that differentially modulate SCD-1 activity present in different tissues. Three cell lines namely human liver cell line (hepatocellular carcinoma HepG2), human skin cell line (epidermal carcinoma A431) and human corneal epithelial progenitor (HCEP) cells were used. HepG2 cells were seeded in a 24 well plate in complete MEM medium. A431 cells were seeded in a 12 well plate in complete DMEM medium. HCEP cells were seeded in a 96 well plate in defined corneal epithelial medium CnT 20. HepG2 cells were induced with LXR agonist T0901317 in medium containing 4.5 gm/litre glucose and 0.1% fatty acid free BSA for 3 days with media change every day (Wang et al, (2004) Journal of Lipid Research, 45, 972-980). A431 cells and HCEP cells were not induced. (3). […] The cells were incubated for last 6 hours in 5% CO2 incubator at 37 deg C. or in specific embodiments for 4 hours to 30 hours. At the end of the incubation, the incubation medium was collected into tubes. […] The supernatant from the tubes was mixed with the scintillation fluid and radioactivity counted in the Packard topcount scintillation counter. […] Inhibition of enzyme activity was calculated as the percent of maximum reaction control that contained no test compound. For active compounds, EC35 was calculated from dose response curve by non linear regression analysis using GraphPadPRISM software. The ratio of EC35 for skin cells to EC35 for liver cells was calculated.

[6] = HepG2 liver cells, LXR agonist induced, read-out: Inhibition of SCD-1 activity in whole cell based assay (EC35), HepG2
[7] = A-431, A431 human skin cells, read-out: hSkin EC35
[8] = HepG2 human liver cells, read-out: hLiver EC35

Compound	IC35 (SCD-1 [1]; [7]) [nM]	IC35 (SCD-1 [2]; [8]) [nM]	Fold Skin:liver (SCD-1 [1])	also measured
CCCCCCCCCSCCCCCCCC(=O)O [TSA, 9 thiastearic acid, reference compound]				IC35 (SCD-1 [1]; A-431, A431 skin cells, not induced, read-out: Inhibition of SCD-1 activity in whole cell based assay (EC35), A431): ~100000 nM; IC35 (SCD-1 [2]; [6]): ~100000 nM; inhibition at 100 µM (SCD-1 [3]; HepG2, HepG2 liver cells, at 100 μM, read-out: Percentage inhibition of SCD-1, HepG2): 58%; inhibition at 100 µM (SCD-1 [4]; A-431, A431 skin cells, at 100 μM, read-out: Percentage inhibition of SCD-1, A431): 52%
Cc1nc(-c2ccc(-c3ccc(O)cc3)nc2)sc1C(=O)NCCCc1ccccc1 [compound 1]	180	266		Fold Liver:skin (SCD-1 [3]): 1.47
Cc1nc(C#Cc2ccc(O)cc2)sc1C(=O)NCc1ccccc1 [compound 1]		363		IC35 (SCD-1 [5]): 218 nM; Fold Liver:Cornea (SCD-1 [5]): 1.66
Cc1nc(C#Cc2ccc(O)cc2)sc1C(=O)NCc1cccnc1 [compound 1]	2140	2300	0.93	
Cc1nc(C#Cc2cccc(O)c2)sc1C(=O)NCc1ccccc1 [compound 1]	6900	3440	2.00	
Cc1nc(-c2ccc(-c3ccc(O)cc3)nc2)sc1C(=O)NCCc1ccccc1 [compound 2]	168	438		Fold Liver:skin (SCD-1 [3]): 2.60
Cc1nc(-n2cnn(Cc3ccc(F)cc3)c2=O)sc1C(=O)NCc1ccccc1 [compound 2]	37.8	39.5	0.95	
Cc1nc(C#Cc2ccc(O)cc2)sc1C(=O)NCCc1ccc(F)cc1 [compound 2]		480		IC35 (SCD-1 [5]): 53.2 nM; Fold Liver:Cornea (SCD-1 [5]): 9.02
Cc1nc(C#Cc2ccc(O)cc2)sc1C(=O)NCCc1ccccc1 [compound 2]	982	490	2.00	
Cc1nc(-n2cnn(Cc3cccc(F)c3F)c2=O)sc1C(=O)NCc1ccccc1 [compound 3]	33.8	29.4	1.15	
Cc1nc(C#Cc2ccc(O)cc2)sc1C(=O)NCc1ccc(Cl)cc1 [compound 3]	> 10000	698	>15	
conjugated linoleic acid [CLA, reference compound]				IC35 (SCD-1 [1]; A431 skin cells, not induced, read-out: Inhibition of SCD-1 activity in whole cell based assay (EC35), A431): 16350 nM; IC35 (SCD-1 [2]; [6]): 22660 nM; Percentage inhibition of SCD-1, HepG2 (SCD-1 [3]; HepG2 cells, at 300 μM): (~80.01% at 300 μM); Percentage inhibition of SCD-1, HCEP (SCD-1 [5]; HCEP corneal cells, at 300 μM): ~80% at 300 μM; Percentage inhibition of SCD-1, A431 (SCD-1 [4]; A431 cells, at 300 μM): (~91% at 300 μM)
